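Five concentrations, 48 hours, 96-well plates. Abbreviation: GI50, concentration required for 50% inhibition of growth. TGI denotes the concentration required for complete inhibition of growth.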
Legend:
Experiment in all cases: growth of human tumour cells (NCI), 48 h
TK-10 renal = system: TK-10 renal
MDA-MB-231 breast = system: MDA-MB-231 breast
UACC-257 melanoma = system: UACC-257 melanoma
MALME-3M melanoma = system: MALME-3M melanoma
IGROV1 ovarian = system: IGROV1 ovarian
SF-268 CNS = system: SF-268 CNS
M14 melanoma = system: M14 melanoma
NCI-H460 lung = system: NCI-H460 lung
NCI-H522 lung = system: NCI-H522 lung
SK-MEL-28 melanoma = system: SK-MEL-28 melanoma
HT29 colon = system: HT29 colon
HOP-92 NSCLC = system: HOP-92 NSCLC
A549 NSCLC = system: A549 NSCLC
PC-3 prostate = system: PC-3 prostate
SF-295 CNS = system: SF-295 CNS
DU-145 prostate = system: DU-145 prostate
786-0 renal = system: 786-0 renal
SNB-19 CNS = system: SNB-19 CNS
SNB-75 CNS = system: SNB-75 CNS
HS 578T breast = system: HS 578T breast
OVCAR-4 ovarian = system: OVCAR-4 ovarian
MOLT-4 leukemia = system: MOLT-4 leukemia
SK-MEL-2 melanoma = system: SK-MEL-2 melanoma
NCI-H226 lung = system: NCI-H226 lung
LOX IMVI melanoma = system: LOX IMVI melanoma
MDA-MB-435 = system: MDA-MB-435
NCI/ADR-RES ovarian = system: NCI/ADR-RES ovarian
HCT-116 colon = system: HCT-116 colon
NCI-H23 lung = system: NCI-H23 lung
SN12C renal = system: SN12C renal
SR leukemia = system: SR leukemia
OVCAR-8 ovarian = system: OVCAR-8 ovarian
SK-MEL-5 melanoma = system: SK-MEL-5 melanoma
A498 renal = system: A498 renal
OVCAR-5 ovarian = system: OVCAR-5 ovarian
SK-OV-3 ovarian = system: SK-OV-3 ovarian
EKVX NSCLC = system: EKVX NSCLC
U251 CNS = system: U251 CNS
COLO 205 colon = system: COLO 205 colon
UACC-62 melanoma = system: UACC-62 melanoma
RPMI-8226 leukemia = system: RPMI-8226 leukemia
HCT-15 colon = system: HCT-15 colon
OVCAR-3 ovarian = system: OVCAR-3 ovarian
T-47D breast = system: T-47D breast
HOP-62 NSCLC = system: HOP-62 NSCLC
ACHN renal = system: ACHN renal
MCF7 breast = system: MCF7 breast
RXF 393 renal = system: RXF 393 renal
SF-539 CNS = system: SF-539 CNS
CAKI-1 renal = system: CAKI-1 renal
CCRF-CEM leukemia = system: CCRF-CEM leukemia
KM12 colon = system: KM12 colon
UO-31 renal = system: UO-31 renal
K-562 leukemia = system: K-562 leukemia
HCC-2998 colon = system: HCC-2998 colon
SW-620 colon = system: SW-620 colon
HL-60(TB) leukemia = system: HL-60(TB) leukemia
BT-549 breast = system: BT-549 breast

CC(=O)NC(CCCOC(C)=O)C(=O)NC(CCCOC(C)=O)C(=O)NC(CCCOC(C)=O)C(=O)NC(Cc1ccc([N+](=O)[O-])cc1)C(=O)NCC(=O)OCc1ccccc1 (stereo not drawn)
TGI (TK-10 renal): > 100 µM | TGI (MDA-MB-231 breast): > 100 µM | TGI (UACC-257 melanoma): > 100 µM | TGI (MALME-3M melanoma): > 100 µM | TGI (IGROV1 ovarian): > 100 µM | TGI (SF-268 CNS): > 100 µM | TGI (M14 melanoma): > 100 µM | TGI (NCI-H460 lung): > 100 µM | TGI (NCI-H522 lung): > 100 µM | TGI (SK-MEL-28 melanoma): > 100 µM | TGI (HT29 colon): > 100 µM | TGI (HOP-92 NSCLC): > 100 µM | TGI (A549 NSCLC): > 100 µM | TGI (PC-3 prostate): > 100 µM | TGI (SF-295 CNS): > 100 µM | TGI (DU-145 prostate): > 100 µM | TGI (786-0 renal): > 100 µM | TGI (SNB-19 CNS): > 100 µM | TGI (SNB-75 CNS): > 100 µM | TGI (HS 578T breast): > 100 µM | TGI (OVCAR-4 ovarian): > 100 µM | TGI (MOLT-4 leukemia): > 100 µM | TGI (SK-MEL-2 melanoma): > 100 µM | TGI (NCI-H226 lung): > 100 µM | TGI (LOX IMVI melanoma): > 100 µM | TGI (MDA-MB-435): > 100 µM | TGI (NCI/ADR-RES ovarian): > 100 µM | TGI (HCT-116 colon): > 100 µM | TGI (NCI-H23 lung): > 100 µM | TGI (SN12C renal): > 100 µM | TGI (SR leukemia): > 100 µM | TGI (OVCAR-8 ovarian): > 100 µM | TGI (SK-MEL-5 melanoma): > 100 µM | TGI (A498 renal): > 100 µM | TGI (OVCAR-5 ovarian): > 100 µM | TGI (SK-OV-3 ovarian): > 100 µM | TGI (EKVX NSCLC): > 100 µM | TGI (U251 CNS): > 100 µM | TGI (COLO 205 colon): > 100 µM | TGI (UACC-62 melanoma): > 100 µM | TGI (RPMI-8226 leukemia): > 100 µM | TGI (HCT-15 colon): > 100 µM | TGI (OVCAR-3 ovarian): > 100 µM | TGI (T-47D breast): > 100 µM | TGI (HOP-62 NSCLC): > 100 µM | TGI (ACHN renal): > 100 µM | TGI (MCF7 breast): > 100 µM | TGI (RXF 393 renal): > 100 µM | TGI (SF-539 CNS): > 100 µM | TGI (CAKI-1 renal): > 100 µM | TGI (CCRF-CEM leukemia): > 100 µM | TGI (KM12 colon): > 100 µM | TGI (UO-31 renal): > 100 µM | TGI (K-562 leukemia): > 100 µM | TGI (HCC-2998 colon): > 100 µM | TGI (SW-620 colon): > 100 µM

O=C1c2ccccc2CCC1(Br)Br
GI50 (TK-10 renal): 1.5 µM | TGI (TK-10 renal): 2.88 µM | GI50 (MDA-MB-231 breast): 1.97 µM | TGI (MDA-MB-231 breast): 4.72 µM | GI50 (UACC-257 melanoma): 1.88 µM | TGI (UACC-257 melanoma): 4.98 µM | GI50 (MALME-3M melanoma): 1.06 µM | TGI (MALME-3M melanoma): 2.75 µM | GI50 (IGROV1 ovarian): 2.59 µM | TGI (IGROV1 ovarian): 5.98 µM | GI50 (SF-268 CNS): 4.1 µM | TGI (SF-268 CNS): 14.1 µM | GI50 (M14 melanoma): 2.08 µM | TGI (M14 melanoma): 5.12 µM | GI50 (NCI-H460 lung): 5.28 µM | TGI (NCI-H460 lung): 18.7 µM | GI50 (NCI-H522 lung): 0.293 µM | TGI (NCI-H522 lung): 0.793 µM | GI50 (SK-MEL-28 melanoma): 2.08 µM | TGI (SK-MEL-28 melanoma): 4.65 µM | GI50 (HT29 colon): 2.28 µM | TGI (HT29 colon): 4.43 µM | GI50 (HOP-92 NSCLC): 1.27 µM | TGI (HOP-92 NSCLC): 2.58 µM | GI50 (A549 NSCLC): 6.84 µM | TGI (A549 NSCLC): 19.1 µM | GI50 (PC-3 prostate): 4.14 µM | TGI (PC-3 prostate): 16.9 µM | GI50 (SF-295 CNS): 14.6 µM | TGI (SF-295 CNS): 28 µM | GI50 (HL-60(TB) leukemia): 2.04 µM | TGI (HL-60(TB) leukemia): 5.22 µM | GI50 (DU-145 prostate): 3.73 µM | TGI (DU-145 prostate): 12 µM | GI50 (786-0 renal): 2.21 µM | TGI (786-0 renal): 4.55 µM | GI50 (BT-549 breast): 2 µM | TGI (BT-549 breast): 4.96 µM | GI50 (SNB-19 CNS): 10.4 µM | TGI (SNB-19 CNS): 23.2 µM | GI50 (SNB-75 CNS): 3.23 µM | TGI (SNB-75 CNS): 16.2 µM | GI50 (HS 578T breast): 4.08 µM | TGI (HS 578T breast): > 26.9 µM | GI50 (OVCAR-4 ovarian): 1.48 µM | TGI (OVCAR-4 ovarian): 2.97 µM | GI50 (MOLT-4 leukemia): 0.631 µM | TGI (MOLT-4 leukemia): 3.94 µM | GI50 (SK-MEL-2 melanoma): 3.13 µM | TGI (SK-MEL-2 melanoma): 11.3 µM | GI50 (NCI-H226 lung): 1.98 µM | TGI (NCI-H226 lung): 4.56 µM | GI50 (LOX IMVI melanoma): 1.48 µM | TGI (LOX IMVI melanoma): 2.9 µM | GI50 (MDA-MB-435): 2.34 µM | TGI (MDA-MB-435): 6.53 µM | GI50 (NCI/ADR-RES ovarian): 3.4 µM | TGI (NCI/ADR-RES ovarian): 17.3 µM | GI50 (HCT-116 colon): 0.888 µM | TGI (HCT-116 colon): 2.23 µM | GI50 (NCI-H23 lung): 1.99 µM | TGI (NCI-H23 lung): 4.9 µM | GI50 (SN12C renal): 2.18 µM | TGI (SN12C renal): 5.37 µM | GI50 (SR leukemia): 0.67 µM | TGI (SR leukemia): 3.9 µM | GI50 (OVCAR-8 ovarian): 2.36 µM | TGI (OVCAR-8 ovarian): 6.04 µM | GI50 (SK-MEL-5 melanoma): 2.32 µM | TGI (SK-MEL-5 melanoma): 5.87 µM | GI50 (A498 renal): 7.69 µM | TGI (A498 renal): 20.9 µM | GI50 (OVCAR-5 ovarian): 1.76 µM | TGI (OVCAR-5 ovarian): 3.25 µM | GI50 (SK-OV-3 ovarian): 6.12 µM | TGI (SK-OV-3 ovarian): 18.2 µM | GI50 (U251 CNS): 5.67 µM | TGI (U251 CNS): 15.9 µM | GI50 (COLO 205 colon): 0.671 µM | TGI (COLO 205 colon): 2.06 µM | GI50 (UACC-62 melanoma): 1.96 µM | TGI (UACC-62 melanoma): 4.54 µM | GI50 (RPMI-8226 leukemia): 1.99 µM | TGI (RPMI-8226 leukemia): 4.9 µM | GI50 (HCT-15 colon): 0.743 µM | TGI (HCT-15 colon): 2.24 µM | GI50 (OVCAR-3 ovarian): 1.75 µM | TGI (OVCAR-3 ovarian): 3.17 µM | GI50 (HOP-62 NSCLC): 6.32 µM | TGI (HOP-62 NSCLC): 17.8 µM | GI50 (ACHN renal): 1.21 µM | TGI (ACHN renal): 2.55 µM | GI50 (MCF7 breast): 1.56 µM | TGI (MCF7 breast): 3.89 µM | GI50 (RXF 393 renal): 1.68 µM | TGI (RXF 393 renal): 3.32 µM | GI50 (SF-539 CNS): 1.88 µM | TGI (SF-539 CNS): 3.74 µM | GI50 (CAKI-1 renal): 1.65 µM | TGI (CAKI-1 renal): 3.04 µM | GI50 (CCRF-CEM leukemia): 0.365 µM | TGI (CCRF-CEM leukemia): 2.01 µM | GI50 (KM12 colon): 4.34 µM | TGI (KM12 colon): 15 µM | GI50 (UO-31 renal): 1.27 µM | TGI (UO-31 renal): 2.6 µM | GI50 (K-562 leukemia): 0.357 µM | TGI (K-562 leukemia): 2.02 µM | GI50 (HCC-2998 colon): 3.88 µM | TGI (HCC-2998 colon): 9.19 µM | GI50 (SW-620 colon): 0.384 µM | TGI (SW-620 colon): 1.53 µM
